Molecules are shown by their SMILES.

This is an account of results in article PMC11726677, “Eradication of Therapy-Resistant Cancer Stem Cells by Novel Telmisartan Derivatives” (Journal of Medicinal Chemistry, 2024).

Series [1] concerns DU145-DR cells. The series is described as follows: Chemosensitizing to docetaxel: metabolic activity of DU145-DR cells (MTT). In kind it is cell-based, human. To be noted: compound 10 μM + DTX 12.5 nM, 72 h.
The nature of series [2]: Hepatocyte stability, mouse. Format: in vitro ADME. The following applies: mouse, cryopreserved mouse hepatocytes. As for the experimental part: (§1) Cryopreserved hepatocytes (human and mouse) were used to analyze the stability of the compounds. Hepatocytes (0.5 × 10^6 cells/mL in Williams E medium supplemented with 2 mM L-glutamine and 25 mM N-2-hydroxyethylpiperazin-Ń-ethanesulfonic acid (HEPES)) were preincubated at 37 °C. […] At the appropriate time points, the reactions were stopped by transferring into acetonitrile. After protein precipitation by centrifugation at 3000 rpm for 20 min at 4 °C, the sample supernatants were analyzed by LC–MS/MS analysis (control compounds were included). The elimination rate constant was determined from the ratio of the ln peak area to time. Half-life (t1/2) and intrinsic clearance (CLint) were calculated using the appropriate formulas.

Series [3] deals with MCF7 cells (ABCG2+). The series is described as follows: SP analysis (DCV, flow cytometry) in MCF7 cells. The following applies: MCF7, 10 μM. In kind it is cell-based, human. An excerpt: (§2) In recent studies, we described the side population (SP) phenotype as a marker that defines a heterogeneous cellular compartment with stem cell-characteristics in various cancer cell lines derived from solid tumors, such as ovarian cancer, breast cancer, and lung cancer.[26],[27]
Background: A flow cytometer gives signals particle by particle.

Series [4] is described as follows: Turbidimetric aqueous solubility. To be noted: phosphate buffered saline, estimated precipitation range, PBS pH 7.4, 37 °C. Format: physicochemical.
Series [5] has as its system STAT5. The series is described as follows: Jess Simple Western immunoassay of STAT5/pSTAT5 in IGROV-1 SP cells. In kind it is cell-based, human. To be noted: IGROV-1 SP, 10 μM, 72 h. As to the method:
The impact of STAT5 activation on the mode of action was investigated in selected solid tumor cell lines as well.
Protein extracts were prepared as previously described.[44] Protein expression was determined using the capillary-based Jess Simple Western detection system (ProteinSimple, BioTechne) according to the manufacturer’s instructions at default settings. […] Horseradish peroxidase (HRP)-conjugated secondary antirabbit antibody, which was included in the Jess Detection Module kit, was used. Data analysis was conducted using Compass for Simple Western 4.0 software (ProteinSimple, BioTechne).

Series [6] concerns IGROV-1 SP cells. The series is described as follows: Chemosensitizing to paclitaxel: metabolic activity of IGROV-1 SP cells (MTT). The following applies: compound 10 μM + PTX 10 nM, 72 h. In kind it is cell-based, human. As to the method: The chemosensitizing efficacy was investigated in the ovarian and prostate cancer cell lines using the above-described metabolic activity assay. Paclitaxel (PTX) served as a reference (CTR) in A2780 V SP and IGROV-1 SP cells and docetaxel (DTX) in PC3-DR and D145-DR cells.
COS-7 (2 × 10^3 cells per well), IGROV-1 SP (2.5 × 10^3 cells per well), A2780 V SP (1.5 × 10^3 cells per well), PC3-DR (4 × 10^3 cells per well), and DU145-DR (3 × 10^3 cells per well) cells were seeded in 96-well plates in triplicates and after 24 h, the compounds were added at the respective concentrations. K562-R and K562 cells (2 × 10^4 cells per well), were treated with the compounds 2 h after seeding. […] A modified MTT colorimetric assay (EZ4U kit, Biomedica) was used to determine the metabolic activity of the tested cells, according to the manufacturer’s instructions. Absorbance was measured and the optical density of the respective FCS-containing medium and of the substrate was subtracted to exclude nonspecific staining. Metabolic activity in the absence of the compounds (CTR, DMSO) was set to 100% as reference.

Series [7] is described as follows: Microsomal metabolic stability, human. In kind it is in vitro ADME. As for the experimental part: The stability of the compounds was assessed in pooled human and mouse liver microsomes (final protein concentration 0.5 mg/mL). […] At the appropriate time points, the reactions were stopped by transferring into acetonitrile. After protein precipitation, by centrifugation at 3000 rpm for 20 min at 4 °C, the sample supernatants were analyzed using LC–MS/MS analysis (control compounds were included). The elimination rate constant was determined from the ratio of the ln peak area to time. Half-life (t1/2) and intrinsic clearance (CLint) were calculated using the appropriate formulas.

Series [8] concerns DU145-DR cells (ABCB1+). The series is described as follows: SP analysis (DCV, flow cytometry) in DU145-DR cells. In kind it is cell-based, human. To be noted: 10 μM.
Excerpt: as §2

A short description of series [9]: Hepatocyte stability, human. In kind it is in vitro ADME. To be noted: human, cryopreserved human hepatocytes. As for the experimental part: as §1

For `CCCc1nc2c(C)cc(-c3nc4ccccc4n3C)cc2n1Cc1ccc(-c2ccccc2C(=O)OC)cc1` [7b, Methyl 4′-((1,7′-dimethyl-2′-propyl-1H,3′H-[2,5′-bibenzo[d]imidazole]-3′-yl)methyl)-[1,1′-biphenyl]-2-carboxylate], the “chemosensitizing to DTX (antimetabolic activity)” value in series [1] was “produced the same effects as 5c and 6c”. The half-life at 1 h, 1 µM in series [2] (MH, read-out: hepatocytic stability mouse t1/2) came to 13.8 min; in series [9] (HH, read-out: hepatocytic stability human t1/2), 18.4 min. The hepatocyte CLint at 1 h, 1 µM came to 101 µL/min/1e6 cells in series [2] (after 60 min in MH, 1 μM, read-out: hepatocytic stability mouse, CLint) and 75.2 µL/min/1e6 cells in series [9] (after 60 min in HH, 1 μM, read-out: hepatocytic stability human, CLint). For the same compound, the “effect on SP phenotype” value in series [3] and in series [8] was “eliminated the SP phenotype” throughout. Further, the solubility at 2 h in series [4] was < 6.5 µM. Moreover, the “phosphorylation status of STAT5” value in series [5] is reported as “practically did not suppress pSTAT5”. In addition, in [6], the “viability / antimetabolic effect in combination with PTX” value is “inactive”. In addition, the “metabolic stability Human, % of compound remaining” value in series [7] (after 30 min in HLM, 1 μM) is 26.3%. Moreover, in [7] (human, pooled human liver microsomes, pH 7.4, HLM, read-out: metabolic stability Human t1/2), the half-life at 1 µM was 16.2 min.

The term solubility denotes how much of the substance goes into solution per volume.
